{"source": "ChEMBL document CHEMBL1159295", "about": "“Sulfated Polyprenylhydroquinones from the Sponge Ircinia spinosula” (J Nat Prod, 1995)", "key": {"Gambusia affinis": {"tested_on": "Gambusia affinis", "assay": "Toxicity in Gambusia affinis", "assay_type": "organism-based", "details": "in vivo"}, "Artemia salina": {"tested_on": "Artemia salina", "assay": "Toxicity in Artemia salina", "assay_type": "organism-based", "details": "in vivo"}, "Bacillus subtilis": {"tested_on": "Bacillus subtilis", "assay": "Antibacterial activity against Bacillus subtilis DSM 347 at 100 ug/disk by diffusion test", "assay_type": "functional, organism-based"}, "Micrococcus luteus": {"tested_on": "Micrococcus luteus", "assay": "Antibacterial activity against Micrococcus luteus DSM 348 at 100 ug/disk by diffusion test", "assay_type": "functional, organism-based"}, "Pseudomonas aeruginosa": {"tested_on": "Pseudomonas aeruginosa", "assay": "Antibacterial activity against Pseudomonas aeruginosa DSM 1117 at 100 ug/disk by diffusion test", "assay_type": "functional, organism-based"}, "Escherichia coli": {"tested_on": "Escherichia coli", "assay": "Antibacterial activity against Escherichia coli DSM 1103 at 100 ug/disk by diffusion test", "assay_type": "functional, organism-based"}, "Candida albicans": {"tested_on": "Candida albicans", "assay": "Antifungal activity against Candida albicans DSM 1665 at 100 ug/disk by diffusion test", "assay_type": "functional, organism-based"}}, "note": "Active and inactive are the calls of the source. The calls are words filed in the database; no cut-off is given here."}
{"smiles": "CC(C)=CCC/C(C)=C/CC/C(C)=C/CC/C(C)=C/CC/C(C)=C/CC/C(C)=C/CC/C(C)=C/CC/C(C)=C/Cc1cc(O)ccc1O", "values": [{"measurement": "LC50", "setting": "Gambusia affinis", "value": "> 100", "unit": "ppm"}, {"measurement": "LC50", "setting": "Artemia salina", "value": 0.98, "unit": "ppm"}]}
{"smiles": "CC(C)=CCC/C(C)=C/CC/C(C)=C/CC/C(C)=C/CC/C(C)=C/CC/C(C)=C/CC/C(C)=C/CC/C(C)=C/Cc1cc(OS(=O)(=O)[O-])ccc1O.[Na+]", "values": [{"measurement": "LC50", "setting": "Gambusia affinis", "value": 16.9, "unit": "ppm"}, {"measurement": "LC50", "setting": "Artemia salina", "value": 0.04, "unit": "ppm"}, {"measurement": "Activity", "setting": "Bacillus subtilis", "value": "inactive"}, {"measurement": "Activity", "setting": "Micrococcus luteus", "value": "inactive"}, {"measurement": "Activity", "setting": "Pseudomonas aeruginosa", "value": "inactive"}, {"measurement": "Activity", "setting": "Escherichia coli", "value": "inactive"}, {"measurement": "Activity", "setting": "Candida albicans", "value": "inactive"}]}
{"smiles": "CC(C)=CCC/C(C)=C/CC/C(C)=C/CC/C(C)=C/CC/C(C)=C/CC/C(C)=C/CC/C(C)=C/Cc1cc(OS(=O)(=O)[O-])ccc1O.[Na+]", "values": [{"measurement": "LC50", "setting": "Gambusia affinis", "value": 15.6, "unit": "ppm"}, {"measurement": "LC50", "setting": "Artemia salina", "value": 0.02, "unit": "ppm"}, {"measurement": "Activity", "setting": "Bacillus subtilis", "value": "inactive"}, {"measurement": "Activity", "setting": "Micrococcus luteus", "value": "inactive"}, {"measurement": "Activity", "setting": "Pseudomonas aeruginosa", "value": "inactive"}, {"measurement": "Activity", "setting": "Escherichia coli", "value": "inactive"}, {"measurement": "Activity", "setting": "Candida albicans", "value": "inactive"}]}
{"smiles": "CC(C)=CCC/C(C)=C/CC/C(C)=C/CC/C(=C/CC/C(C)=C/CC/C(C)=C/CC/C(C)=C/CC/C(C)=C/Cc1cc(OS(=O)(=O)[O-])ccc1O)CO.[Na+]", "values": [{"measurement": "LC50", "setting": "Gambusia affinis", "value": 19.6, "unit": "ppm"}, {"measurement": "LC50", "setting": "Artemia salina", "value": 0.05, "unit": "ppm"}, {"measurement": "Activity", "setting": "Bacillus subtilis", "value": "inactive"}, {"measurement": "Activity", "setting": "Micrococcus luteus", "value": "inactive"}, {"measurement": "Activity", "setting": "Pseudomonas aeruginosa", "value": "inactive"}, {"measurement": "Activity", "setting": "Escherichia coli", "value": "inactive"}, {"measurement": "Activity", "setting": "Candida albicans", "value": "inactive"}]}
{"smiles": "CC(C)=CCC/C(C)=C/CC/C(C)=C/CC/C(=C/CC/C(C)=C/CC/C(C)=C/CC/C(C)=C/CC/C(C)=C/Cc1cc(O)ccc1O)CO", "values": [{"measurement": "LC50", "setting": "Gambusia affinis", "value": "> 100", "unit": "ppm"}, {"measurement": "LC50", "setting": "Artemia salina", "value": 0.35, "unit": "ppm"}, {"measurement": "Activity", "setting": "Bacillus subtilis", "value": "inactive"}, {"measurement": "Activity", "setting": "Micrococcus luteus", "value": "inactive"}, {"measurement": "Activity", "setting": "Pseudomonas aeruginosa", "value": "inactive"}, {"measurement": "Activity", "setting": "Escherichia coli", "value": "inactive"}, {"measurement": "Activity", "setting": "Candida albicans", "value": "inactive"}]}
{"smiles": "CC(C)=CCC/C(C)=C/CC/C(C)=C/CC/C(=C/CC/C(C)=C/CC/C(C)=C/CC/C(C)=C/CCC1(C)C=Cc2cc(O)ccc2O1)CO", "note": "(stereo not drawn)", "values": [{"measurement": "LC50", "setting": "Gambusia affinis", "value": "> 100", "unit": "ppm"}, {"measurement": "LC50", "setting": "Artemia salina", "value": 32.3, "unit": "ppm"}, {"measurement": "Activity", "setting": "Bacillus subtilis", "value": "inactive"}, {"measurement": "Activity", "setting": "Micrococcus luteus", "value": "inactive"}, {"measurement": "Activity", "setting": "Pseudomonas aeruginosa", "value": "inactive"}, {"measurement": "Activity", "setting": "Escherichia coli", "value": "inactive"}, {"measurement": "Activity", "setting": "Candida albicans", "value": "inactive"}]}
{"smiles": "CC(C)=CCC/C(C)=C/CC/C(C)=C/CC/C(C)=C/CC/C(C)=C/CC/C(C)=C/CC/C(C)=C/Cc1cc(O)ccc1O", "values": [{"measurement": "LC50", "setting": "Gambusia affinis", "value": "> 100", "unit": "ppm"}, {"measurement": "LC50", "setting": "Artemia salina", "value": 0.91, "unit": "ppm"}]}
{"smiles": "CC(C)=CCC/C(C)=C/CC/C(C)=C/CC/C(C)=C/CC/C(C)=C/CC/C(C)=C/CCC1(C)C=Cc2cc(O)ccc2O1", "note": "(stereo not drawn)", "values": [{"measurement": "LC50", "setting": "Gambusia affinis", "value": "> 100", "unit": "ppm"}, {"measurement": "LC50", "setting": "Artemia salina", "value": 1.15, "unit": "ppm"}, {"measurement": "Activity", "setting": "Bacillus subtilis", "value": "inactive"}, {"measurement": "Activity", "setting": "Micrococcus luteus", "value": "inactive"}, {"measurement": "Activity", "setting": "Pseudomonas aeruginosa", "value": "inactive"}, {"measurement": "Activity", "setting": "Escherichia coli", "value": "inactive"}, {"measurement": "Activity", "setting": "Candida albicans", "value": "inactive"}]}
{"smiles": "CC(C)=CCC/C(C)=C/CC/C(C)=C/CC/C(C)=C/CC/C(C)=C/CC/C(C)=C/CC/C(C)=C/CCC1(C)C=Cc2cc(O)ccc2O1", "note": "(stereo not drawn)", "values": [{"measurement": "LC50", "setting": "Gambusia affinis", "value": "> 100", "unit": "ppm"}, {"measurement": "LC50", "setting": "Artemia salina", "value": 1.45, "unit": "ppm"}, {"measurement": "Activity", "setting": "Bacillus subtilis", "value": "inactive"}, {"measurement": "Activity", "setting": "Micrococcus luteus", "value": "inactive"}, {"measurement": "Activity", "setting": "Pseudomonas aeruginosa", "value": "inactive"}, {"measurement": "Activity", "setting": "Escherichia coli", "value": "inactive"}, {"measurement": "Activity", "setting": "Candida albicans", "value": "inactive"}]}
